Among the test systems are M14 melanoma; SK-MEL-2 melanoma; MDA-MB-435; 786-0 renal; LOX IMVI melanoma; OVCAR-5 ovarian; TK-10 renal; NCI-H23 lung; CCRF-CEM leukemia; EKVX NSCLC.
Holding throughout (experiment): growth of human tumour cells (NCI), 48 h

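Briefly, cells in 96-well plates were exposed to five compound concentrations for 48 h, and endpoints were estimated by linear interpolation. GI50 = concentration required for 50% inhibition of growth. TGI marks complete inhibition of growth.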 Some results are limits rather than exact numbers.

With `Cc1cc(NC(=O)NCCOc2ccc(N3C(N)=NC(N)=NC3(C)C)cc2Cl)ccc1S(=O)(=O)F`, the GI50 in the experiment with M14 melanoma is 4.1 µM; in the experiment on SK-MEL-2 melanoma, 5.29 µM; in the experiment with MDA-MB-435, 0.626 µM; in the experiment with 786-0 renal, 5.02 µM; in the experiment on LOX IMVI melanoma, 0.74 µM; with OVCAR-5 ovarian it was 1.44 µM. In addition, the GI50 is 6.23 µM in the experiment on TK-10 renal, 2.76 µM in the experiment with NCI-H23 lung and 0.805 µM with CCRF-CEM leukemia. For the same molecule, the TGI in the experiment with M14 melanoma is above 100 µM; with SK-MEL-2 melanoma, 27.1 µM; with MDA-MB-435 it was above 100 µM; with 786-0 renal, above 100 µM; with LOX IMVI melanoma it was above 100 µM; with OVCAR-5 ovarian, above 100 µM. Besides, the figures for the TGI in the experiment with TK-10 renal, with NCI-H23 lung and in the experiment with CCRF-CEM leukemia were above 100 µM, above 100 µM and above 67.6 µM, respectively.
For the molecule `C=CC[P@]1(=O)O[C@H](c2ccccc2)C(C)N1C(C)C` (stereo not given in full), the TGI in the experiment on M14 melanoma, in the experiment with SK-MEL-2 melanoma, in the experiment with 786-0 renal, with EKVX NSCLC, in the experiment with LOX IMVI melanoma and in the experiment on OVCAR-5 ovarian was above 100 µM each time. For the same molecule, the TGI in the experiment with TK-10 renal, with NCI-H23 lung and with CCRF-CEM leukemia was above 100 µM each time.
In the case of `COc1ccc2c(=O)c(-c3cc(OC)c(OC)cc3OC)coc2c1`, the TGI in the experiment with M14 melanoma, with SK-MEL-2 melanoma, in the experiment on 786-0 renal, with EKVX NSCLC, in the experiment with LOX IMVI melanoma and in the experiment on OVCAR-5 ovarian was above 100 µM throughout. The TGI in the experiment on TK-10 renal, with NCI-H23 lung and in the experiment with CCRF-CEM leukemia was above 100 µM throughout.
Consider `CC(C)(C)OC(=O)N(CCCCN(CCCn1c2c(c3ccccc3c1=O)C(=O)c1ccccc1-2)C(=O)OC(C)(C)C)CCCn1c2c(c3ccccc3c1=O)C(=O)c1ccccc1-2`, for which the GI50 in the experiment with M14 melanoma was 31.3 µM; in the experiment with SK-MEL-2 melanoma, 65.1 µM; in the experiment on MDA-MB-435 it was 68.7 µM; with 786-0 renal, 26.8 µM; in the experiment with LOX IMVI melanoma, 18.6 µM; in the experiment on TK-10 renal, above 100 µM. Also, the GI50 in the experiment with NCI-H23 lung is 25 µM. Further, the TGI in the experiment on M14 melanoma, in the experiment with SK-MEL-2 melanoma, in the experiment with MDA-MB-435, in the experiment on 786-0 renal, in the experiment with LOX IMVI melanoma and in the experiment on TK-10 renal was above 100 µM throughout. Besides, in the experiment with NCI-H23 lung, the TGI was above 100 µM.
Take `O=C(O)CCC(O)=C1S(=O)(=O)OCCOS1(=O)=O`: the TGI in the experiment with M14 melanoma, in the experiment with SK-MEL-2 melanoma, in the experiment with MDA-MB-435, in the experiment on 786-0 renal, in the experiment with EKVX NSCLC and with LOX IMVI melanoma was above 100 µM in each case. Further, the TGI with OVCAR-5 ovarian, with TK-10 renal and in the experiment with NCI-H23 lung was above 100 µM throughout.
In the case of `COc1ccc2nc3cc(Cl)ccc3c(Sc3ccc(N)cc3)c2c1`, the TGI in the experiment with M14 melanoma is 22 µM; in the experiment with SK-MEL-2 melanoma it was 27.7 µM; with 786-0 renal, 19.8 µM; in the experiment with EKVX NSCLC it was 25.4 µM; in the experiment with LOX IMVI melanoma it was 20.9 µM; in the experiment with OVCAR-5 ovarian, 34.8 µM. Moreover, the TGI with TK-10 renal was 25.9 µM; in the experiment on NCI-H23 lung, 27.9 µM; in the experiment on CCRF-CEM leukemia, 18.7 µM.
Turning to `Nc1c(C(=O)c2cccc(-c3cccnc3)c2)cnn1-c1ccc(F)cc1`, the GI50 in the experiment on M14 melanoma, with SK-MEL-2 melanoma, with MDA-MB-435, in the experiment on 786-0 renal, with LOX IMVI melanoma and in the experiment on OVCAR-5 ovarian was above 25 µM each time. Further, the GI50 in the experiment with TK-10 renal, with NCI-H23 lung and with CCRF-CEM leukemia was above 25 µM throughout. Besides, the TGI with M14 melanoma, in the experiment with SK-MEL-2 melanoma, with MDA-MB-435, with 786-0 renal, in the experiment on LOX IMVI melanoma and in the experiment with OVCAR-5 ovarian was above 25 µM each time. Besides, the TGI with TK-10 renal, in the experiment on NCI-H23 lung and in the experiment with CCRF-CEM leukemia was above 25 µM each time.
For `CC1=CC(=O)NP(=O)(Oc2ccc(Cl)cc2)N1` (stereo not given), the TGI in the experiment on M14 melanoma, with SK-MEL-2 melanoma, in the experiment with 786-0 renal, in the experiment on EKVX NSCLC, with LOX IMVI melanoma and with OVCAR-5 ovarian was above 100 µM each time. The TGI in the experiment on TK-10 renal, with NCI-H23 lung and in the experiment on CCRF-CEM leukemia was above 100 µM each time.
As for `Cc1nc(-n2nc(-c3ccccc3)cc2-c2ccccc2)sc1C(=O)CC(=O)C(=O)Nc1ccc(Cl)c(Cl)c1`, the TGI with M14 melanoma, with SK-MEL-2 melanoma, in the experiment with 786-0 renal, with EKVX NSCLC, in the experiment with LOX IMVI melanoma and in the experiment with OVCAR-5 ovarian was above 100 µM throughout. Moreover, the TGI in the experiment on TK-10 renal, in the experiment on NCI-H23 lung and with CCRF-CEM leukemia was above 100 µM throughout.
In the case of `COCN1COCN(C)C1=O`, the TGI in the experiment with M14 melanoma, in the experiment on SK-MEL-2 melanoma, in the experiment with 786-0 renal, with EKVX NSCLC, in the experiment with LOX IMVI melanoma and with OVCAR-5 ovarian was above 100 µM in each case. Moreover, the TGI in the experiment with TK-10 renal, in the experiment with NCI-H23 lung and in the experiment with CCRF-CEM leukemia was above 100 µM each time.
`C=C1C(=O)OC2CC1C(OC(=O)/C=C/c1ccccc1)C/C(C)=C/CC/C(C)=C/CCC2(C)O` (stereo not given): the TGI with M14 melanoma came out at 3.14 µM; with SK-MEL-2 melanoma, 2.85 µM; in the experiment on MDA-MB-435 it was 3.76 µM; with 786-0 renal, 2.31 µM; with EKVX NSCLC, 3.66 µM; in the experiment with LOX IMVI melanoma, 2.61 µM. For the same molecule, the TGI in the experiment with OVCAR-5 ovarian came out at 3.19 µM; in the experiment on TK-10 renal, 3.17 µM; with NCI-H23 lung it was 4.91 µM.
As to `Cc1c(C)c2cc3c(=O)c(CCl)coc3c(C)c2oc1=O`, the TGI in the experiment with M14 melanoma, with SK-MEL-2 melanoma, in the experiment on 786-0 renal, in the experiment on EKVX NSCLC, in the experiment on LOX IMVI melanoma and in the experiment on OVCAR-5 ovarian was above 100 µM throughout. In addition, the TGI in the experiment with TK-10 renal, with NCI-H23 lung and in the experiment with CCRF-CEM leukemia was above 100 µM throughout.
Consider `COc1ccc(-c2cc(=O)c3c(O)c(O)c(OC)cc3o2)cc1O`, for which the TGI in the experiment on M14 melanoma, in the experiment with SK-MEL-2 melanoma, in the experiment with 786-0 renal, in the experiment with EKVX NSCLC, in the experiment on LOX IMVI melanoma and in the experiment on OVCAR-5 ovarian was above 100 µM throughout. For the same molecule, the TGI in the experiment with TK-10 renal, in the experiment with NCI-H23 lung and with CCRF-CEM leukemia was above 100 µM in each case.
